The source of these data is patent US20260055065A1, “PYRIDAZINONE COMPOUNDS WHICH MODULATE MUTANT PROTEINS FOR TREATING RESPIRATORY DISEASES” (The Hospital for Sick Children, priority 2022, published 2026).

Each structure is given as a SMILES string.

T1 sequence (P13569 with tags, fused parts or gaps DEL508-508): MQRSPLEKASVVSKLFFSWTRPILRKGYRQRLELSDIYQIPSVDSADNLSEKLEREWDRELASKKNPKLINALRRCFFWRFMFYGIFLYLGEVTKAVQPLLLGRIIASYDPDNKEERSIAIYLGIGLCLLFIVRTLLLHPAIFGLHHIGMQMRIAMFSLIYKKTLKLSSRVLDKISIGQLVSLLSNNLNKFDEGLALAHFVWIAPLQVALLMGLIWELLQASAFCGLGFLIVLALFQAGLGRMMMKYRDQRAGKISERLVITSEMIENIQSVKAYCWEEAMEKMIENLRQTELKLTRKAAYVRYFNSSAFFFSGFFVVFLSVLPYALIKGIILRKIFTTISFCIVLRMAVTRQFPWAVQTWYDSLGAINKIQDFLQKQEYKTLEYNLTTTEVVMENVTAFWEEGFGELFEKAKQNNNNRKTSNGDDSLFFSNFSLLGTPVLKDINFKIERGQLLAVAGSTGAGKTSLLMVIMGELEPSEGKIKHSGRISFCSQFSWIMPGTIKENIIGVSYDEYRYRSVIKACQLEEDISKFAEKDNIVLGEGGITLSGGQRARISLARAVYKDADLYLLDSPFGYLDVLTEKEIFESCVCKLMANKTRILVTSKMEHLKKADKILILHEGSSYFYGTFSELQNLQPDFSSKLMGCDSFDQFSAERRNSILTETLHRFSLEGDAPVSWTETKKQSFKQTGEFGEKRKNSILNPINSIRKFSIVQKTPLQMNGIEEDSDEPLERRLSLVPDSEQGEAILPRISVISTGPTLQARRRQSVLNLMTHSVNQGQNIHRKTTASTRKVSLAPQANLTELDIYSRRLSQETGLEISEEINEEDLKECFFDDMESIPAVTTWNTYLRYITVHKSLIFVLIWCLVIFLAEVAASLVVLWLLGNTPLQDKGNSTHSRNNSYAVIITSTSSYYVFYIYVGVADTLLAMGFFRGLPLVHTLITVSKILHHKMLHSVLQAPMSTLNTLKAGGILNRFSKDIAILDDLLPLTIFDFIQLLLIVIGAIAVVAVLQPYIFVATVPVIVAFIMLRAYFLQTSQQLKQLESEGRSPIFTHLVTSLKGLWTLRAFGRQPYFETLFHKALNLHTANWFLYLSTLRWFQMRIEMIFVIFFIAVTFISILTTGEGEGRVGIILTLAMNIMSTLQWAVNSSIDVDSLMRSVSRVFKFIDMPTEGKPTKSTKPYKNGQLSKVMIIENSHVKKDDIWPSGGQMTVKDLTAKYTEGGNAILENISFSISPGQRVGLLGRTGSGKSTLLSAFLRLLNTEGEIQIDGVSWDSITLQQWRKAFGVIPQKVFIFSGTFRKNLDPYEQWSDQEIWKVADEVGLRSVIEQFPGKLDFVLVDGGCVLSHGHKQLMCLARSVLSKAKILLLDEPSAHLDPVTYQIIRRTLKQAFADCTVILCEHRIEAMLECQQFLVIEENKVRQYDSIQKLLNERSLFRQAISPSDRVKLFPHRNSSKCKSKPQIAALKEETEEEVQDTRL

One experiment has as its target T1, deltaF508 CFTR (Homo sapiens, UniProt P13569, DEL508-508).
T1 construct: host or cells: CFBE (cystic fibrosis bronchial-derived cell line)
Nature of the experiment: CFBE potentiator assay (FLIPR membrane potential, temperature-rescued). The format is cell-based. The note with it: CFBE cells, 3 micromolar forskolin; bin 1 nM-100 nM; read-out: CFBE potentiator EC50 range. The method, then: Cell culture: HEK293 cells stably expressing human deltaF508 CFTR were cultured in DMEM/F12 medium containing 10% fetal bovine serum (FBS) and 600 micrograms/mL geneticin. For functional CFTR assays, cryo-preserved cells were quickly thawed in a 37° C. water bath, diluted with warm DMEM/F12 medium containing 10% FBS, spun down at 300×g for 5 mins and resuspended in the same medium at a density of 300,000 cells/mL. A cystic fibrosis bronchial-derived cell line complemented with a 4.7 Kb deltaF508 CFTR cDNA (“CFBE”) was obtained from Dr. Dieter Gruenert under a license from UCSF. These cells were cultured in MEM with Earle's salt (Invitrogen)supplemented with 10% fetal bovine serum (Invitrogen) and 300 micrograms/mL hygromycin (Millipore). CFBE cells were grown on flasks coated with a fibronectin solution containing LHC basal medium (Invitrogen), 0.001% bovine serum albumin (Sigma), 1% v/v Vitrogen 100 (BD Bioscience) and 10 micrograms/mL human fibronectin (Life Technologies). All cells were grown at 37° C. and 5% CO2 unless specified for an assay.
CFBE potentiator assay: CFBE cells were dissociated for 10 mins at 37° C. with Hank's balanced salt solution containing 0.6 mM EDTA and 10% of a 0.25% Trypsin/EDTA solution (all from Life Technologies). An equal amount of CFBE cell growth medium (see Cell culture above) was then added to the flasks and cells were spun at 500×g for 10 mins. Cells were re-suspended in cell medium at a density of 150,000 cells/mL and plated in 384-well black, poly-D-Lysine-coated plates (7,500 cells/well). Cells were then grown at 37° C., 5% CO2 for a total of 6-8 days to allow differentiation. Cell medium was changed every 2-3 days. The day before each experiment, culture medium was removed, fresh culture medium was added and cells were placed at 30° C., 5% CO2 for 18-24 hrs to allow temperature rescue of delF508 CFTR. Potentiation activity was measured as described above for HEK cells except cells were stained for exactly 60 mins, compounds (or DMSO for negative control) were mixed with assay buffer containing 3 micromolar forskolin, and the positive control wells had assay buffer containing 3 micromolar forskolin and 9 micromolar VX-770 (Selleckchem).
Data analysis: CFTR activity was defined as maximum fluorescence signal after addition minus baseline fluorescence. All data were normalized to each plate's positive and negative controls and expressed as percent responses. Concentration response curves were analyzed by fitting the data to a 4-parameter logistic equation in Microcal's Origin or IDBS' Activity Base software.
Regarding `Nc1c(N2CCCCC2)c(-c2ccccc2)nn(-c2ccc(Cl)c(O)c2)c1=O`, the EC50 lay in the range of 0.001 to 0.1 µM.
For the compound `Nc1c(N2CCCC2)c(-c2ccc(F)cc2)nn(-c2ccc(Cl)c(O)c2)c1=O`, the EC50 fell in the range of 0.001 to 0.1 µM.
Regarding `Nc1c(N2CCCC2)c(-c2ccc(F)cc2)nn(-c2ccc(F)c(O)c2)c1=O`, the EC50 lay within 0.001 to 0.1 µM.
The same measure, in the same setting: the result for `CC(C)c1ccc(-n2nc(-c3ccc(F)cc3)c(N3CCCC3)c(N)c2=O)cc1O` reads 0.001 to 0.1 µM.
As for `Cc1ccc(-n2nc(-c3ccc(F)cc3)c(N3CCCC3)c(N)c2=O)cc1O`, the EC50 was in the range of 0.001 to 0.1 µM.
`Nc1c(N2CCCCC2)c(-c2ccccc2)nn(-c2ccc(C(F)(F)F)c(O)c2)c1=O`: the EC50 was in the range of 0.001 to 0.1 µM.
Still for that read-out and setting: the result for `Nc1c(N2CCCCC2)c(-c2ccc(F)cc2)nn(-c2ccc(C(F)(F)F)c(O)c2)c1=O` reads 0.001 to 0.1 µM; that for `Nc1c(N2CCCCC2)c(-c2ccc(F)cc2)nn(-c2cccc(O)c2)c1=O`, 0.001 to 0.1 µM.
As to `Nc1c(N2CCCC2)c(-c2ccccc2)nn(-c2ccc(Cl)c(O)c2)c1=O`, the EC50 was in the range of 0.001 to 0.1 µM.
As to `CC(C)c1ccc(-n2nc(-c3ccc(F)cc3)c(N3CCCCC3)c(N)c2=O)cc1O`, the EC50 is 0.001 to 0.1 µM.
For `CC(C)(C)c1ccc(-n2nc(-c3ccccc3)c(N3CCCC3)c(N)c2=O)cc1O`, the EC50 was in the range of 0.001 to 0.1 µM.
`Nc1c(N2CCCCC2)c(-c2ccc(F)cc2)nn(-c2ccc(F)c(O)c2)c1=O`: the EC50 was in the range of 0.001 to 0.1 µM.
Take `Cc1ccc(-n2nc(-c3ccccc3)c(N3CCCCC3)c(N)c2=O)cc1O`: the EC50 lay within 0.001 to 0.1 µM.
As to `Cc1ccc(-n2nc(-c3ccc(F)cc3)c(N3CCCCC3)c(N)c2=O)cc1O`, the EC50 lay in the range of 0.001 to 0.1 µM.
For the compound `CC(C)c1ccc(-n2nc(-c3ccccc3)c(N3CCCCC3)c(N)c2=O)cc1O`, the EC50 was 0.001 to 0.1 µM.
`Nc1c(N2CCCC2)c(-c2ccccc2)nn(-c2cccc(O)c2)c1=O`: the EC50 was 0.001 to 0.1 µM.
`CC(C)(C)c1ccc(-n2nc(-c3ccccc3)c(N3CCCCC3)c(N)c2=O)cc1O`: the EC50 lay in the range of 0.001 to 0.1 µM.
Regarding `Nc1c(N2CCCC2)c(-c2ccc(F)cc2)nn(-c2ccc(C(F)(F)F)c(O)c2)c1=O`, the EC50 was in the range of 0.001 to 0.1 µM.
On to `Nc1c(N2CCCCC2)c(-c2ccnc(C(F)(F)F)c2)nn(-c2cccc(O)c2)c1=O`, for which the EC50 fell in the range of 0.001 to 0.1 µM.
As to `CC(C)(C)c1ccc(-n2nc(-c3ccc(F)cc3)c(N3CCCC3)c(N)c2=O)cc1O`, the EC50 fell in the range of 0.001 to 0.1 µM.
As to `CC(C)c1ccc(-n2nc(-c3ccccc3)c(N3CCCC3)c(N)c2=O)cc1O`, the EC50 was 0.001 to 0.1 µM.
On the same count and under the same terms, the result for `Nc1c(N2CCCCC2)c(-c2cccnc2)nn(-c2cccc(O)c2)c1=O` reads 0.001 to 0.1 µM.
In the case of `Nc1c(-n2cccn2)c(-c2ccccc2)nn(-c2cccc(O)c2)c1=O`, the EC50 fell in the range of 0.001 to 0.1 µM.
Turning to `Nc1c(N2CCC2)c(-c2ccccc2)nn(-c2cccc(O)c2)c1=O`, the EC50 was in the range of 0.001 to 0.1 µM.
The same measure, in the same setting: the figure for `Nc1c(N2CCCCC2)c(-c2ccccc2)nn(-c2cccc(O)c2)c1=O` is 0.001 to 0.1 µM; for `Nc1c(N2CCCCC2)c(-c2ccncc2)nn(-c2cccc(O)c2)c1=O` it is 0.001 to 0.1 µM.
In the case of `CC(C)(C)c1ccc(-n2nc(-c3ccc(F)cc3)c(N3CCCCC3)c(N)c2=O)cc1O` [drawing 37], the EC50 was 0.001 to 0.1 µM.
Regarding `Cc1ccccc1-c1nn(-c2cccc(O)c2)c(=O)c(N)c1N1CCCCC1` [drawing 38], the EC50 was in the range of 0.001 to 0.1 µM.
On to `CN(C)c1c(-c2ccccc2)nn(-c2cccc(O)c2)c(=O)c1N` [drawing 45], for which the EC50 lay in the range of 0.001 to 0.1 µM.

The experiment is the same for the next values; noted with them: CFBE cells, 3 micromolar forskolin; bin 100 nM-1 μM; read-out: CFBE potentiator EC50 range.
For `Nc1c(N2CCCCC2)c(-c2ccccn2)nn(-c2cccc(O)c2)c1=O`, the EC50 was 0.1 to 1 µM.
In the case of `Nc1c(N2CCOCC2)c(-c2ccccc2)nn(-c2cccc(O)c2)c1=O`, the EC50 is 0.1 to 1 µM.
Still for that read-out and setting: the result for `Nc1c(N2CCCCC2)c(-c2ccccc2)nn(CC(O)C(F)(F)F)c1=O` (centres unmarked) reads 0.1 to 1 µM; that for `CC(CO)n1nc(-c2ccccc2)c(N2CCCCC2)c(N)c1=O` (centres unmarked), 0.1 to 1 µM; that for `Nc1c(N2CCCCC2)c(-c2ccccc2)nn(Cc2ccccc2)c1=O`, 0.1 to 1 µM.

Staying with this experiment, now noted: CFBE cells, 3 micromolar forskolin; bin 1 μM-10 μM; read-out: CFBE potentiator EC50 range.
In the case of `Nc1c(N2CCCCC2)c(-c2ccccc2)nn(CCCO)c1=O`, the EC50 lay within 1 to 10 µM.
With `N#CCCn1nc(-c2ccccc2)c(N2CCCCC2)c(N)c1=O`, the EC50 fell in the range of 1 to 10 µM.

The same experiment, now with this note: CFBE cells, 3 micromolar forskolin; read-out: CFBE potentiator assay pot. pEC50 (converted).
Regarding `Cc1ccccc1-c1nn(-c2cccc(O)c2)c(=O)c(N)c1N1CCCCC1` [Compound 15, 4-amino-2-(3-hydroxyphenyl)-5-(piperidin-1-yl)-6-(o-tolyl)pyridazin-3(2H)-one], the EC50 was 0.0158 µM.
`CN(C)c1c(-c2ccccc2)nn(-c2cccc(O)c2)c(=O)c1N` [Compound 21, 4-amino-5-(dimethylamino)-2-(3-hydroxyphenyl)-6-phenylpyridazin-3(2H)-one]: the EC50 was 0.02 µM.
